Data set [1] is described as follows: Drug loading and encapsulation efficiency of liposome suspensions (G-25 column separation, HPLC). It counts as physicochemical. The conditions noted are these: drug loading at 40° C.
Protocol: Liposome colloidal suspensions were prepared by ethanol injection technique. […] (DSPE-PEG2000) were dissolved in 2.86 ml of ethanol. The lipid solution in ethanol was injected into 17.4 ml of sodium acetate (200 mM or 400 mM) with vigorous stirring at 60° C. Liposomes were formed as soon as the lipid solution was in contact with sodium acetate. This was followed by extruding the liposome suspension through a 200 nm and a 100 nm polycarbonate membrane (six times, respectively). The liposome with about 100 nm was obtained and diafiltrated against a citrate buffer (pH 5.5) to form a higher inside/lower outside pH gradient between the external medium and the internal aqueous medium of the liposomes. The empty liposome suspension was then stored at 4° C. before drug loading process.
PGE1 (alprostadil) was added to the liposome suspension in the preceding paragraph at various drug/lipid molar ratios at room temperature (25° C.) for 20 min. The PGE1 loaded liposome suspension was stored at 4° C.
The liposome suspension was prepared according to the method described in Section 1.1, except that sodium acetate (200 mM or 400 mM) was replaced by sodium bicarbonate (e.g. 200 mM, 400 mM or other concentrations).
The amount of the drug encapsulated into the liposome was quantified using Waters Alliance® HPLC system with a Photodiode Array (PDA) Detector. […] Separation was performed in C18 Column (Phenomenex Prodigy 5U ODS-3 150×4.6 mm), and then post-reaction was carried out by mixed with IN of KOH at 65° C. The peak of the drug e.g. PGE1 was detected at 280 nm. The retention time was about 4.6 minutes.
Encapsulation efficiency (EE), i.e. the percentage of the drug encapsulated (or loaded) in the internal aqueous medium of the liposomes to the total amount of the drug present in the liposome suspension (i.e. drug in the external medium and drug loaded into the internal aqueous medium of the liposomes) was quantified as follows. Briefly, the liposome suspension was subjected to column chromatography. The free or non-associated drug (i.e. the drug in the external medium) and the liposomes containing the encapsulated drugs in the internal aqueous medium were separated from each other by eluting the liposome suspension through a G-25 column. The amount of the free drug was determined using Waters HPLC with PDA detection, and the amount of the encapsulated drug in the internal aqueous medium of the liposome, after destructing the liposomes with methanol (90% methanol and 10% liposome suspension), was also determined using the same method. The encapsulation efficiency was calculated using the following formula,
[formula] where L is the amount of the encapsulated drug in the internal aqueous medium of the liposomes, and F is the amount of the free drug in the external medium.
In addition, the internal drug concentration (mM) was calculated as follows. Internal drug concentration (mM)=[Drug [μg/mL]×EE %/molecular weight]/[trapped volume*]
Data set [2] deals with pulmonary hypertension. Put plainly: Hypoxia-induced pulmonary hypertension in rats, mean pulmonary arterial pressure (PAP). The conditions noted are these: treprostinil at 6 μg/kg, single dose, microsprayer at the trachea bifurcation, hypoxic rats (FiO2=0.1). It counts as in vivo, Sprague Dawley rats. As for the experimental part:
To induce pulmonary hypertension, a pressure catheter was inserted into the pulmonary artery of each rat. One end of the catheter was exposed at the nape of the neck and connected to a pressure transducer. 24 Hours after the catheter insertion, the rats were transferred into a hypoxic chamber where the oxygen (O2) level was reduced to 10% (FiO2=0.1) by increasing the level of nitrogen (N2). Once stable pulmonary hypertension was established, each rat was administered with a single dose of the three test articles: saline (N=6), free treprostinil at 6 μg/kg (N=6) or the pharmaceutical composition of Example 4 with treprostinil at 6 μg/kg (liposomal treprostinil, N=6). The test article was administered using a microsprayer at the trachea bifurcation of the rat. Following the test article administration, mean pulmonary arterial pressure (PAP) was measured at scheduled time points.

Setting [3] is: liposomal formulation (4-2) HSPC:cholesterol:DSPG 3:2:0.075, internal bicarbonate salt 400 mM.
Where [4] appears, read: liposomal formulation (4-3) DPPC:Cholesterol:DSPE-mPEG2000 3:2:0.075, internal bicarbonate salt 400 mM.
The mark [5] stands for this setting: liposomal formulation (4-4) DSPC:DPPC:Cholesterol:mPEG2000-DSPE 2.7:0.3:2:0.075, internal bicarbonate salt 250 mM.
Where [6] appears, read: liposomal formulation (4-5) HSPC:Cholesterol:mPEG2000-DSPE:stearylamine 3:2:0.075:0.025, internal bicarbonate salt 400 mM.
The mark [7] stands for this setting: liposomal formulation (4-6) HSPC:DMPC:Cholesterol:mPEG2000-DSPE 2.7:0.3:2:0.075, internal bicarbonate salt 400 mM.

We go through one molecule from US12551437B2, “Liposome compositions comprising weak acid drugs and uses thereof” (Pharmosa Biopharm Inc., priority 2017, dated 2026).

With `CCCCC[C@H](O)CC[C@@H]1[C@H]2Cc3cccc(OCC(=O)O)c3C[C@H]2C[C@H]1O` [Prostacycline (treprostinil), treprostinil], the E.E. in data set [1] (setting [3]) is reported as 97.6%; in data set [1] (setting [4]) it was 90.4%; in data set [1] (setting [5]), 97.4%; in data set [1] (setting [6]) it was 93.7%; in data set [1] (setting [7]), 94.5%. In addition, the “Internal [drug]” value in data set [1] (setting [3]) was 121.78 mM; in data set [1] (setting [4]) it was 115.01 mM; in data set [1] (setting [5]), 77.84 mM; in data set [1] (setting [6]), 114.62 mM; in data set [1] (setting [7]), 119.45 mM. Moreover, the “Internal drug to internal salt molar ratio” value in data set [1] (setting [3]) came out at 0.304; in data set [1] (setting [4]) it was 0.288; in data set [1] (setting [5]), 0.311; in data set [1] (setting [6]) it was 0.287; in data set [1] (setting [7]), 0.299. For the same molecule, the “Measured [drug]” value is 1530.0 µg/mL in data set [1] (setting [3]); 1560 µg/mL in data set [1] (setting [4]); 980 µg/mL in data set [1] (setting [5]); 1500 µg/mL in data set [1] (setting [6]); 1550 µg/mL in data set [1] (setting [7]). In addition, the “maximum reduction of mean PAP” value in data set [2] came out at 20%.
